Common to all, as to experiment: NCI anticancer screen, dose series, 48 h
Assay [1] has as its system DLD-1.
In assay [2] the test system is DMS-114.
Assay [3] relates to DMS-273.
The subject of assay [4] is HOP-18.
In assay [5] the test system is LXFL 529.
The subject of assay [6] is M19-MEL.
In assay [7] the test system is RXF 631.
Assay [8] concerns SNB-78.
In assay [9] the test system is XF498.

The structures appear in SMILES notation.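 Test compounds were applied to cells in 96-well plates for 48 hours at 5 doses. The concentration for 50% growth inhibition is given as GI50.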 Activity calls are given as the source filed them. No stated cut-off is given here; in the data, active = GI50 up to about 1.1 µM and inactive = higher.

For `O=Cc1ccc(-c2ccc(-c3ccc(C=O)s3)o2)s1`, the GI50 in assay [1] was 74.5 µM (inactive); in [2] it was > 84.1 µM (inactive); in assay [3], 26.2 µM (inactive); in [4] it was > 100 µM (inactive); in assay [5], 0.186 µM (active); in assay [6] it was > 100 µM (inactive). The GI50 in [7] is 0.541 µM (active); in assay [8], > 72.8 µM (inactive).
Take `COC(=O)N/N=C(\c1nc2ccc(Cl)cc2nc1O)C(O)c1ccc([N+](=O)[O-])cc1` (centres undefined): the GI50 in assay [1], in assay [2], in assay [3], in [5], in assay [6] and in [7] was > 100 µM (inactive) each time. In addition, in assay [8], the GI50 was > 100 µM (inactive).
On to `COC(=O)c1oc([N+](=O)[O-])c(-c2ccccc2)c1-c1ccccc1`, for which the GI50 in [1] is 76.2 µM (inactive); in assay [2] it was 88.3 µM (inactive); in assay [3] it was > 100 µM (inactive); in [4], > 100 µM (inactive); in assay [5] it was > 100 µM (inactive); in assay [6], 36.8 µM (inactive). Besides, the GI50 in assay [7], in [8] and in assay [9] was > 100 µM (inactive) in each case.
With `CCOC(=O)c1csc(CCCCCCc2nc(C(=O)OCC)cs2)n1`, the GI50 in [1] was > 61.4 µM (inactive); in assay [3] it was 41.2 µM (inactive); in assay [4], 75.5 µM (inactive); in [5], 56.1 µM (inactive); in assay [6], 21.9 µM (inactive); in assay [7], > 87.7 µM (inactive). The GI50 in assay [8] is 45.3 µM (inactive); in assay [9] it was 26.7 µM (inactive).
For the compound `CC1OC(=O)C2CC3CCCCC3C(/C=C/C3CCCC(C)N3C)C12` (centres undefined), the GI50 in [1], in assay [2], in assay [3], in assay [4], in assay [5] and in assay [6] was > 100 µM (inactive) throughout. In addition, the GI50 in assay [8] was > 22.5 µM (inactive); in [9] it was > 100 µM (inactive).
As for `COc1ccc(/C=C/C(=O)c2sc(-c3cccnc3)nc2C)cc1`, the GI50 was 39.4 µM (inactive) in [1]; 26.7 µM (inactive) in assay [2]; 40.9 µM (inactive) in assay [3]; 45.3 µM (inactive) in assay [4]; 67.9 µM (inactive) in assay [6]; 54.3 µM (inactive) in [7]. Also, the GI50 in assay [8] is > 100 µM (inactive).
In the case of `O=C1c2cc([N+](=O)[O-])cc3cc([N+](=O)[O-])cc(c23)C(=O)N1CCCNCCNCCCN1C(=O)c2cc([N+](=O)[O-])cc3cc([N+](=O)[O-])cc(c23)C1=O`, the GI50 is 0.0282 µM (active) in [1]; 0.0469 µM (active) in assay [2]; < 0.01 µM (active) in assay [3]; 0.542 µM (active) in [4]; < 0.01 µM (active) in [5]; 0.0381 µM (active) in [6]. Also, the values for the GI50 in assay [8] and in assay [9] were < 0.0193 µM (active) and < 0.01 µM (active), respectively.
Consider `Cc1ccccc1NC(=O)C(=O)C(C#N)c1ccccc1C` (centres undefined), for which the GI50 in [1], in assay [2], in assay [3], in [4], in [5] and in assay [8] was > 100 µM (inactive) throughout. Besides, the GI50 in assay [9] was 34 µM (inactive).
`O=C1C2=C(c3ccccc31)C(c1ccccc1Cl)NC(S)=N2` (centres undefined): the GI50 in assay [1] was 64.9 µM (inactive); in [3], 68.7 µM (inactive); in assay [5], 35.3 µM (inactive); in [6], 44.2 µM (inactive); in assay [9] it was 25.6 µM (inactive).
As to `Cc1cc(=O)oc2c(C)c(OCCCOc3ccc4c(C)cc(=O)oc4c3C)ccc12`, the GI50 in [1], in assay [2], in assay [3], in [4], in assay [5] and in assay [6] was > 100 µM (inactive) throughout. For the same compound, the GI50 in [8] and in assay [9] was > 100 µM (inactive) throughout.
For the compound `O=C(O)[C@H](NS(=O)(=O)c1ccc2ccccc2c1)c1ccccc1`, the GI50 in assay [1], in assay [3], in assay [4], in assay [5], in [6] and in assay [7] was > 100 µM (inactive) in each case. The GI50 in assay [9] was 99.3 µM (inactive).
With `Cc1c2c(cc3c(=O)ccn(CCN(C)C)c13)c(=O)ccn2CCN(C)C`, the GI50 in [1] was 6.84 µM (inactive); in assay [2], 16.3 µM (inactive); in assay [3], 4.18 µM (inactive); in [4] it was 15.7 µM (inactive); in assay [5] it was 4.46 µM (inactive); in assay [6] it was 16.4 µM (inactive). The GI50 is 47.1 µM (inactive) in assay [8] and 10.4 µM (inactive) in assay [9].
Regarding `O=CC[C@H]1CCc2ccccc2C12CCC(=O)CC2`, the GI50 in assay [1] was 60.7 µM (inactive); in [2] it was 33.8 µM (inactive); in [5], 57.5 µM (inactive); in assay [6], 57.7 µM (inactive); in assay [7], > 100 µM (inactive); in assay [9] it was 51.5 µM (inactive).
Consider `CC1(C)Oc2ccccc2N2O[C@@H]3C(=O)N(c4ccccc4)C(=O)[C@@H]3C21c1ccccc1` (some centres undefined), for which the GI50 in assay [1] is 25.1 µM (inactive); in assay [2], 23.2 µM (inactive); in [4] it was 24.3 µM (inactive); in assay [5], 56.1 µM (inactive); in assay [6], 29 µM (inactive); in assay [8], 35.5 µM (inactive).
`CN(C)C(=S)/N=c1\ss/c(=N\C(=S)N(C)C)n1-c1ccc(Cl)cc1`: the GI50 in [3] was 39.9 µM (inactive); in [5] it was > 100 µM (inactive); in assay [8], > 100 µM (inactive); in assay [9], > 100 µM (inactive).
On to `CCCCCCCCCCCC[S+](C)C`, for which the GI50 in [1] is 8.81 µM (inactive); in [2], 2.5 µM (inactive); in assay [3], 5.2 µM (inactive); in [4], 4.97 µM (inactive); in assay [6], 1.45 µM (inactive); in assay [8], 5.2 µM (inactive). For the same compound, in assay [9], the GI50 is 2.69 µM (inactive).
Turning to `N#Cc1c(N)c(C(=O)O)nn(-c2cccc(C(F)(F)F)c2)c1=O`, the GI50 in assay [1] was 70.3 µM (inactive); in [4] it was 29.2 µM (inactive); in assay [5], > 100 µM (inactive); in [6] it was > 100 µM (inactive); in assay [7], > 100 µM (inactive); in assay [8], > 100 µM (inactive). Further, in [9], the GI50 is > 100 µM (inactive).
Take `O=S1OC2(c3ccccc3-c3ccccc32)c2ccccc21` (centres undefined): the GI50 in assay [1], in assay [2], in assay [4], in [5], in assay [6] and in assay [9] was > 100 µM (inactive) each time.
Take `CC(=O)Nc1ccc(C2C(C(=O)Nc3ccccc3)=C(C)NC(C)=C2C(=O)Nc2ccccc2)cc1`: the GI50 in assay [1] was 97.5 µM (inactive); in assay [2], 35.7 µM (inactive); in assay [3] it was > 100 µM (inactive); in [4], > 100 µM (inactive); in assay [5] it was > 64.9 µM (inactive); in [6], > 100 µM (inactive). In addition, the GI50 in assay [8] and in assay [9] was > 100 µM (inactive) throughout.
As to `CNc1ccc(/C=C2\C=Cc3ccccc32)cc1`, the GI50 was 31.3 µM (inactive) in assay [1]; 17 µM (inactive) in assay [2]; 14.2 µM (inactive) in [3]; 16.4 µM (inactive) in assay [4]; 25.9 µM (inactive) in [5]; 43.2 µM (inactive) in [6]. For the same compound, the GI50 in assay [8] is 44.6 µM (inactive); in assay [9], 40.9 µM (inactive).
As for `CC1=CC(=O)C(C)(C2=NC(C)(C)CO2)c2ccccc21` (centres undefined), the GI50 in assay [1] was > 100 µM (inactive); in assay [2] it was > 100 µM (inactive); in [4], 31.6 µM (inactive); in [5], > 100 µM (inactive); in assay [6] it was > 100 µM (inactive); in assay [7] it was > 100 µM (inactive).
Take `O=C1C2C(C(=O)N1c1ccccc1)C1c3ccccc3C2C2C(=O)N(c3ccccc3)C(=O)C21` (centres undefined): the GI50 in [1] is 2.73 µM (inactive); in assay [2], 3.08 µM (inactive); in assay [3], 3.46 µM (inactive); in assay [4], > 100 µM (inactive); in assay [5], 38.5 µM (inactive); in [6], 39.5 µM (inactive).
In the case of `CC(C)(C)OC(=O)C1=C(O)C(C(=O)OC(C)(C)C)C23CCCCC12C(C(=O)OC(C)(C)C)C(O)=C3C(=O)OC(C)(C)C` (centres undefined), the GI50 in assay [1], in [2], in assay [3], in assay [4], in [5] and in assay [6] was > 100 µM (inactive) throughout. Further, the GI50 in [8] and in [9] was > 100 µM (inactive) throughout.
In the case of `N#CCC(=O)N/N=C(\C(=O)Nc1ccc(Cl)c(Cl)c1)C1CN(c2ccccc2)N=C1N` (centres undefined), the GI50 in [1], in assay [2], in assay [3], in [4], in assay [5] and in [6] was > 100 µM (inactive) throughout. Besides, the GI50 in assay [8] was > 100 µM (inactive).

Values taken from ChEMBL document CHEMBL1201862, “PubChem BioAssay data set” (2004).
